Measured values taken from patent US20060062758A1, “Tight junction modulator peptide PN159 for enhanced mucosal delivery of therapeutic compounds” (Nastech Pharmaceutical Comapny Inc., priority 2004, published 2006).
Non-standard residues stand in square brackets, D forms with d. No end group written: not given here.

Legend:
[1] = test system: EpiAirway™ Cell Membrane (mucosal epithelial cell layer); assay: Transepithelial electrical resistance (TER), EpiAirway in vitro epithelial tissue model; assay type: cell-based; conditions: for TER(x)/TER(159) +/− SEM: Table 6, D-amino acid substitutions; for TER(x)/TER(159) +/− SEM / Relative TER Decrease / TER(x)/TER(159) +/− SEM*: relative to PN159; for Relative TER Decrease: Table 8, amino acid substitutions; for TER(x)/TER(159) +/− SEM*: mean values from multiple repeats
Source text: One “kit” consists of 24 units.
A. Respiratory airway epithelial cells form tight junctions in vivo as well as in vitro, and thereby restrict the flow of solutes across the tissue. These junctions confer a transepithelial resistance of several hundred ohms×cm^2 in excised airway tissues. In the MatTek EpiAirway™ units, the transepithelial electrical resistance (TER) is reported by the manufacturer to be routinely around 1000 ohms×cm^2. […] The porous membrane-bottomed units without cells, conversely, provide only minimal transmembrane resistance (approximately 5-20 ohms×cm^2).
B. Accurate determinations of TER require that the electrodes of the ohmmeter be positioned over a significant surface area above and below the membrane, and that the distance of the electrodes from the membrane be reproducibly controlled. The method for TER determination recommended by MatTek and employed for all experiments herein employs an “EVOM”™ epithelial voltohmmeter and an “ENDOHM”™ tissue resistance measurement chamber from World Precision Instruments, Inc., Sarasota, Fla.
D. Determinations of TER are made with 1.5 mL of PBS in the chamber and 350 μL of PBS in the membrane-bottomed unit being measured. The top electrode is adjusted to a position just above the membrane of a unit containing no cells (but containing 350 μL of PBS) and then fixed to ensure reproducible positioning. The resistance of a cell-free unit is typically 5-20 ohms×cm^2 (“background resistance”).
G. The unit is gently blotted free of excess PBS on its exterior surface only before being placed into the chamber (containing a fresh 1.5 mL aliquot of PBS). An aliquot of 350 μL PBS is added to the unit before the top electrode is placed on the chamber and the TER is read on the EVOM meter.
I. The units are read in the following sequence: all sham-treated controls, followed by all formulation-treated samples, followed by a second TER reading of each of the sham-treated controls. All TER values are reported as a function of the surface area of the tissue.
TER was calculated as: TER=(R1−Rb)×A Where R1 is resistance of the insert with a membrane, Rb is the resistance of the blank insert, and A is the area of the membrane (0.6 cm^2). The effect of pharmaceutical formulations comprising intranasal delivery-enhancing agents, for example, permeabilizing peptides as measured by TER across the EpiAirway™ Cell Membrane (mucosal epithelial cell layer). Permeabilizing peptides are applied to the EpiAirway™ Cell Membrane at a concentration of 1.0 mM. A decrease in TER value relative to the control value (control=approximately 1000 ohms-cm^2; normalized to 100.) indicates a decrease in cell membrane resistance and an increase in mucosal epithelial cell permeability.
The formulation pH was fixed at 4.5.

[2] = test system: EpiAirway™ Cell Membrane (mucosal epithelial cell layer); assay: Permeation kinetics across the in vitro epithelial tissue model; conditions: for permeability enhancement (in words): PN159 analogues compared with PN159; for Perm(x)/Perm(159) +/− SEM: Table 6, D-amino acid substitutions; for Perm(x)/Perm(159) +/− SEM / Perm(x)/Perm(159) +/− SEM*: relative to PN159; for Perm(x)/Perm(159) +/− SEM*: mean values from multiple repeats
Description: The EpiAirway™ system was developed by MatTek Corp (Ashland, Mass.) as a model of the pseudostratified epithelium lining the respiratory tract. The epithelial cells are grown on porous membrane-bottomed cell culture inserts at an air-liquid interface, which results in differentiation of the cells to a highly polarized morphology. The apical surface is ciliated with a microvillous ultrastructure and the epithelium produces mucus (the presence of mucin has been confirmed by immunoblotting). The inserts have a diameter of 0.875 cm, providing a surface area of 0.6 cm^2. The cells are plated onto the inserts at the factory approximately three weeks before shipping. One “kit” consists of 24 units.
A. A “kit” of 24 EpiAirway™ units can routinely be employed for evaluating five different formulations, each of which is applied to quadruplicate wells. Each well is employed for determination of permeation kinetics (4 time points), transepithelial electrical resistance (TER). An additional set of wells is employed as controls, which are sham treated during determination of permeation kinetics, but are otherwise handled identically to the test sample-containing units for determinations of transepithelial resistance and viability.
B. In all experiments, the mucosal delivery formulation to be studied is applied to the apical surface of each unit in a volume of 100 μL, which is sufficient to cover the entire apical surface. An appropriate volume of the test formulation at the concentration applied to the apical surface (no more than 100 μL is generally needed) is set aside for subsequent determination of concentration of the active material by ELISA or other designated assay.
D. In order to minimize potential sources of error and avoid any formation of concentration gradients, the units are transferred from one 0.9 mL-containing well to another at each time point in the study. These transfers are made at the following time points, based on a zero time at which the 100 μL volume of test material was applied to the apical surface: 15 minutes, 30 minutes, 60 minutes, and 120 minutes.
F. At the completion of each time point, the medium is removed from the well from which each unit was transferred, and aliquotted into two tubes (one tube receives 700 μL and the other 200 μL) for determination of the concentration of permeated test material and, in the event that the test material is cytotoxic, for release of the cytosolic enzyme, lactate dehydrogenase, from the epithelium. These samples are kept in the refrigerator if the assays are to be conducted within 24 hours, or the samples are subaliquotted and kept frozen at −80° C. until thawed once for assays. Repeated freeze-thaw cycles are to be avoided.
EIA kit (p/n S-1178(EIAH6101) was purchased from Peninsula Laboratories Inc. (Division of BACHEM, San Carlos, Calif., 800-922-1516). 17×120 mm polypropylene conical tubes (p/n 352097, Falcon, Franklin Lakes, N.J.) were used for all sample preparations. Eight standards were used for PTH quantitation. The rest of the assay procedure was the same as the kit inserts.
The instant study was designed to evaluate the effect of PN159 itself or in combination with additional permeation enhancers on PTH permeation. The PN159 concentrations evaluated are 25, 50, and 100 μM. The additional permeation enhancers are 45 mg/ml M-β-CD, 1 mg/ml DDPC, and 1 mg/ml EDTA. Sorbitol was used as a tonicifier (146-190 mM) to adjust the osmolarity of formulations to 220 mOsm/kg. The formulation pH was fixed at 4.5. PTH was chosen as a model peptide in this example. 2 mg/ml PTH was combined with PN159 with or without additional permeation enhancers. The combination was tested using an in vitro epithelial tissue model to monitor PTH permeation, transepithelial electrical resistance (TER), and the cytotoxicity of the formulation by LDH assay.
The effect of PN159 on permeation of MC-4RA was evaluated in this study.

NH2-KLaLKlALkAlkAALkLA-amide (H-KL[dA]LK[dL]AL[dK]A[dL][dK]AAL[dK]LA-NH2) [PN434]
TER reduction (in words) ([1]; PN159 analogues compared with PN159): null activities
TER(x)/TER(159) +/− SEM [1]: 0.12 +/− 0.01
permeability enhancement (in words) [2]: null activities
Perm(x)/Perm(159) +/− SEM [2]: 0.02 +/− 0.00

NH2-RLALRLALRALRAALRLA-amide (H-RLALRLALRALRAALRLA-NH2) [PN394, Argenine]
Relative TER Decrease [1]: 0.7

NH2-KLAAALLKKAKKLAAALL-amide (H-KLAAALLKKAKKLAAALL-NH2) [PN441]
TER(x)/TER(159) +/− SEM* ([1]; Table 9, hydrophobic faces): 0.54 +/− 0.04
Perm(x)/Perm(159) +/− SEM* ([2]; Table 9, hydrophobic faces): 0.35 +/− 0.04

NH2-KLAWKLALKALKAALKLA-amide (H-KLAWKLALKALKAALKLA-NH2) [PN0425, Single Tryptophan]
Relative TER Decrease [1]: 1.0

NH2-RLAWRLALRALRAALRLA-amide (H-RLAWRLALRALRAALRLA-NH2) [PN395, Argenine and Single Tryptophan]
Relative TER Decrease [1]: 0.8

NH2-klalklalkalkaalkla-amide (H-[dK][dL][dA][dL][dK][dL][dA][dL][dK][dA][dL][dK][dA][dA][dL][dK][dL][dA]-NH2; SMILES CC(C)C[C@@H](NC(=O)[C@H](N)CCCCN)C(=O)N[C@H](C)C(=O)N[C@H](CC(C)C)C(=O)N[C@H](CCCCN)C(=O)N[C@H](CC(C)C)C(=O)N[C@H](C)C(=O)N[C@H](CC(C)C)C(=O)N[C@H](CCCCN)C(=O)N[C@H](C)C(=O)N[C@H](CC(C)C)C(=O)N[C@H](CCCCN)C(=O)N[C@H](C)C(=O)N[C@H](C)C(=O)N[C@H](CC(C)C)C(=O)N[C@H](CCCCN)C(=O)N[C@H](CC(C)C)C(=O)N[C@H](C)C(N)=O) [PN393]
TER(x)/TER(159) +/− SEM [1]: 1.06 +/− 0.00
Perm(x)/Perm(159) +/− SEM [2]: 1.02 +/− 0.16

NH2-KLALKLALKALKAALKLALKLA-amide (H-KLALKLALKALKAALKLALKLA-NH2) [PN420]
TER(x)/TER(159) +/− SEM* ([1]; Example 7, length changes): 0.77 +/− 0.05
Perm(x)/Perm(159) +/− SEM* ([2]; Example 7, length changes): 0.24

NH2-LKlLKkLlkKLLkLL-amide (H-LK[dL]LK[dK]L[dL][dK]KLL[dK]LL-NH2) [PN407]
TER(x)/TER(159) +/− SEM [1]: 1.08 +/− 0.01
Relative TER Decrease [1]: 1.1
permeability enhancement (in words) [2]: minor but statistically significant improvement on permeability
Perm(x)/Perm(159) +/− SEM [2]: 1.20 +/− 0.05

NH2-KLALKLALKALKAALK-amide (H-KLALKLALKALKAALK-NH2) [PN418]
TER(x)/TER(159) +/− SEM* ([1]; Example 7, length changes): 1.05 +/− 0.05
Perm(x)/Perm(159) +/− SEM* ([2]; Example 7, length changes): 0.64

NH2-KALKLKAALALLAKLKLA-amide (H-KALKLKAALALLAKLKLA-NH2) [PN424]
TER(x)/TER(159) +/− SEM* ([1]; Table 9, hydrophobic faces): 0.59 +/− 0.07
Perm(x)/Perm(159) +/− SEM* ([2]; Table 9, hydrophobic faces): 0.20 +/− 0.04

NH2-KLALKLALKALKAALKLALK-amide (H-KLALKLALKALKAALKLALK-NH2) [PN419]
TER(x)/TER(159) +/− SEM* ([1]; Example 7, length changes): 1.23 +/− 0.01
Perm(x)/Perm(159) +/− SEM* ([2]; Example 7, length changes): 0.74

NH2-LKLLKKLLKKLLKLL-amide (H-LKLLKKLLKKLLKLL-NH2) [PN406, Leucine and Lysine rich]
Relative TER Decrease [1]: 0.9

NH2-KLAWKLAWKALKAAWKLA-amide (KLAWKLAWKALKAAWKLA-NH2) [PN028, Three Tryptophan]
Relative TER Decrease [1]: 0.7

NH2-alklaaklaklalklalk-amide (ALKLAAKLAKLALKLALK; all D-amino acids; C-terminal amide) [PN408]
TER(x)/TER(159) +/− SEM [1]: 1.05 +/− 0.01
Perm(x)/Perm(159) +/− SEM [2]: 1.16 +/− 0.07

NH2-KLALKLALKALKAA-amide (H-KLALKLALKALKAA-NH2) [PN417]
Perm(x)/Perm(159) +/− SEM* ([2]; Example 7, length changes): 0.04

H-KLALKLALKLNLKAALKLA-NH2 [PN448]
Relative TER Decrease [1]: 0.4

NH2-KLALKLALKALKAALKLALKLALKAL-amide (H-KLALKLALKALKAALKLALKLALKAL-NH2) [PN422]
TER(x)/TER(159) +/− SEM* ([1]; Example 7, length changes): 0.47 +/− 0.07
Perm(x)/Perm(159) +/− SEM* ([2]; Example 7, length changes): 0.07

NH2-KALAALLKKLAKLLAALK-amide (H-KALAALLKKLAKLLAALK-NH2) [PN444]
TER(x)/TER(159) +/− SEM* ([1]; Table 9, hydrophobic faces): 0.82 +/− 0.05
Perm(x)/Perm(159) +/− SEM* ([2]; Table 9, hydrophobic faces): 0.41 +/− 0.08

NH2-KALAALLKKAAKLLAALK-amide (H-KALAALLKKAAKLLAALK-NH2) [PN442]
TER(x)/TER(159) +/− SEM* ([1]; Table 9, hydrophobic faces): 0.93 +/− 0.03
Perm(x)/Perm(159) +/− SEM* ([2]; Table 9, hydrophobic faces): 0.81 +/− 0.03

NH2-KLALKLALKALKAALKLALKLALK-amide (H-KLALKLALKALKAALKLALKLALK-NH2) [PN421]
TER(x)/TER(159) +/− SEM* ([1]; Example 7, length changes): 0.74 +/− 0.11
Perm(x)/Perm(159) +/− SEM* ([2]; Example 7, length changes): 0.17

NH2-KLAWKLALKALKAAWKLA-amide (H-KLAWKLALKALKAAWKLA-NH2) [PN0427, Two Tryptophan]
Relative TER Decrease [1]: 1.0

NH2-LKTLATALTKLAKTLTTL-amide (H-LKTLATALTKLAKTLTTL-NH2) [PN443, Threonine]
Relative TER Decrease [1]: 0.3
